Laboratory results reported in patent US9814785B2, “Hepatitis C virus liposome vaccine” (Saitama Medical University, priority 2010, dated 2017).
Where a SMILES comes first, the peptide text is derived from it.

Columns and labels:
[1] = test system: RMA-HHD target cells pulsed with peptide; conditions: for CTL cytotoxicity to target cell presenting each peptide: immunogenicity of each peptide in each pool, FIG. 2; for CTL cytotoxicity to target cell presenting each peptide / induction of cytotoxic T cells: 51Cr release; for induction of cytotoxic T cells: peptide-bound liposome prepared from the single peptide, FIG. 3
[2] = test system: T cells that produce interferon gamma (IFN-γ) antigen-specifically; assay: ELISPOT (IFN-γ) with splenocytes of immunized mouse; assay type: in vivo, HHD mouse; conditions: for IFN-γ production due to the stimulation with each peptide: immunogenicity of each peptide in each pool, FIG. 2
[3] = test system: recombinant vaccinia virus that expresses HCV-NS3 gene (VV-NS3); parameters: species or system HHD mouse; conditions: mouse, in vivo
[4] = immunization with recombinant virus VV-NS3, ELISPOT, FIG. 7

Row | Compound | CTL cytotoxicity to target cell presenting each peptide [1] | IFN-γ production due to the stimulation with each peptide ([2]; ELISPOT) | induction of cytotoxic T cells [1] | vaccine effect of peptide-bound liposome prepared from single peptide [3] | further results
1 | CC[C@H](C)[C@H](NC(=O)[C@H](CC(C)C)NC(=O)[C@H](CS)NC(=O)[C@H](CCCCN)NC(=O)[C@H](Cc1c[nH]c2ccccc12)NC(=O)[C@H](CCSC)NC(=O)[C@@H](N)CCC(N)=O)C(=O)N[C@@H](CCCNC(=N)N)C(=O)N[C@@H](CC(C)C)C(=O)O [compound 8, Gln Met Trp Lys Cys Leu Ile Arg Leu] | strongly induced antigen-specific CTL |  |  |  | 
2 | CC[C@H](C)[C@H](NC(=O)[C@@H](NC(=O)[C@H](CO)NC(=O)[C@@H](NC(=O)[C@H](CC(=O)O)NC(=O)[C@H](CC(C)C)NC(=O)CN)C(C)C)C(C)C)C(=O)N1CCC[C@H]1C(=O)N[C@H](C(=O)O)[C@@H](C)O [compound 14, Gly Leu Asp Val Ser Val Ile Pro Thr] (H-GLDVSVIPT-OH) | strongly induced antigen-specific CTL | confirmed |  |  | 
3 | CC[C@H](C)[C@H](NC(=O)[C@H](CS)NC(=O)[C@@H](NC(=O)[C@H](C)NC(=O)[C@H](CC(C)C)NC(=O)[C@@H](N)Cc1ccccc1)[C@@H](C)O)C(=O)N[C@@H](CC(N)=O)C(=O)NCC(=O)N[C@H](C(=O)O)C(C)C [compound 23, Phe Leu Ala Thr Cys Ile Asn Gly Val] (H-FLATCINGV-OH) | strongly induced antigen-specific CTL | confirmed | confirmed |  | 
4 | CSCC[C@H](NC(=O)[C@@H](N)Cc1ccc(O)cc1)C(=O)N[C@@H](CC(N)=O)C(=O)N[C@H](C(=O)N1CCC[C@H]1C(=O)NCC(=O)N[C@@H](CC(C)C)C(=O)N1CCC[C@H]1C(=O)N[C@H](C(=O)O)C(C)C)[C@@H](C)O [peptide #3, Tyr Met Asn Thr Pro Gly Leu Pro Val] (H-YMNTPGLPV-OH) | strongly induced antigen-specific CTL | confirmed |  | remarkable vaccine effect | immunogenicity of liposome-bound peptide ([2]; F1 mouse (HHD male x C57BL/6 female) expressing HLA-A*0201 and H-2b, ELISPOT, FIG. 5): high immunogenicity of the same level as that of mouse epitope 1630-1637; boost effect on immunization with VV-NS3 [2, 4]: absent; immunogenicity of peptide on immunization with VV-NS3 [2, 4]: not exhibited; immunogenicity of peptide on immunization with whole NS3 ([2]; immunization with recombinant viruses Adex1CA3269 and VV-NS3, peptide not liposome-bound, FIG. 6): low immunogenicity and low; IFN-γ production ([2]; peptide-bound liposome prepared from the single peptide, ELISPOT, FIG. 3): particularly remarkable
5 | CSCC[C@H](NC(=O)CN)C(=O)N[C@@H](Cc1ccccc1)C(=O)N[C@@H](CC(=O)O)C(=O)N[C@@H](CO)C(=O)N[C@@H](CO)C(=O)N[C@H](C(=O)N[C@@H](CC(C)C)C(=O)N[C@@H](CS)C(=O)O)C(C)C [peptide #13, Gly Met Phe Asp Ser Ser Val Leu Cys] (H-GMFDSSVLC-OH) | strongly induced antigen-specific CTL | confirmed | confirmed | remarkable vaccine effect | 
6 | CC[C@H](C)[C@H](N)C(=O)N[C@@H](CCSC)C(=O)N[C@H](C(=O)N[C@@H](CS)C(=O)N[C@@H](CCSC)C(=O)N[C@@H](CO)C(=O)N[C@@H](C)C(=O)N[C@@H](CC(=O)O)C(=O)N[C@@H](CC(C)C)C(=O)O)[C@@H](C)O [peptide #19, Ile Met Thr Cys Met Ser Ala Asp Leu] (H-IMTCMSADL-OH) | strongly induced antigen-specific CTL | confirmed |  | remarkable vaccine effect | 
7 | IMACMSADL (Hepatitis C virus) [#19-3A] |  |  |  |  | vaccine effect, comparison of #19 and #19-3A bound to liposome ([1]; liposome inoculated twice, FIG. 11): higher vaccine effect
8 | cys Met Ser Ala Asp Leu Glu Val Val (CMSADLEVV; Hepatitis C virus) [compound 17] | strongly induced antigen-specific CTL | confirmed | confirmed |  | 
